Consider five molecules from ChEMBL document CHEMBL3992484, “Synthetic α-Hydroxytropolones as Inhibitors of HIV Reverse Transcriptase Ribonuclease H Activity” (Medchemcomm, 2016).

Molecules are shown by their SMILES.

As usually defined, the ΔTm is the change in melting temperature against a reference sample. Broadly, the CC50 is the concentration that lowers cell viability or growth by half. Higher therefore signals better tolerance by the cells. As usually defined, the IC50 is the concentration that gives 50% inhibition. A high value points to weaker potency in that assay. For orientation: EC50 means the concentration giving half of the maximal effect.

Data set [1] concerns Human immunodeficiency virus 1. The data set is described as follows: Stabilization of HIV-1 RT-RNase H assessed as change in melting temperature at 20 uM by sypro-orange dye-based differential scanning fluorimetric analysis. A general note: In DSF a fluorescence change marks the thermal transition of the protein.
Data set [2] can be described thus: Cytotoxicity against human CEM-SS cells after 7 days by XTT assay. It is filed as cell-based. In general terms: Formazan colour is commonly taken as a measure of viable cells.
Data set [3] in a line: Inhibition of HIV-1 RT-RNase H using 18-nucleotide 3'-fluorescein-labeled RNA annealed to a complementary 18-nucleotide 5'-dabsyl-labeled DNA as substrate measured after 10 mins by FRET assay. Further details: species or system Human immunodeficiency virus 1.
In data set [4] the test system is Human immunodeficiency virus 1. In words: Antiviral activity against HIV1 RF infected in human CEM-SS cells assessed as protection against viral-induced cytopathic effect after 7 days by XTT assay. Conditions: Human immunodeficiency virus 1, RF, 168 h. The data set is classed as functional, cell-based. Background: Damage to the host cells serves as the signal in cytopathic effect assays.

`COC(=O)c1c(C)cc(O)c(=O)c(O)c1Br`: the ΔTm in data set [1] worked out at 2.48 °C. This molecule returned a CC50 at 168 h in data set [2] of 7.6 µM. Also, 0.13 µM corresponded to half-maximal inhibition in data set [3] (IC50). For the same molecule, the EC50 in data set [4] was 2.2 µM.

Turning to `CC(=O)c1cc(O)c(=O)c(O)cc1C`, the ΔTm in data set [1] came out at 2.9 °C. Moreover, half-maximal cytotoxicity in data set [2] (CC50 at 168 h) was put at 20 µM. This molecule also displayed an IC50 in data set [3] of 0.29 µM. For the same molecule, in data set [4], the EC50 came to 6.9 µM.

`CCOC(=O)c1cc(O)c(=O)c(O)cc1C`: the ΔTm in data set [1] came out at 2.4 °C. Also, the IC50 in data set [3] is 0.25 µM. The EC50 in data set [4] stood at 5 µM.

`CC(C)c1ccc(O)c(=O)c(O)c1`: the ΔTm in data set [1] worked out at 2.3 °C.

For `COC(=O)c1cc(O)c(=O)c(O)cc1C`, the ΔTm in data set [1] came out at 2.7 °C. This molecule showed an IC50 in data set [3] of 0.16 µM. Further, the EC50 in data set [4] turned out to be 7.5 µM.
